For 17 compounds, IC50 and Control results are on record in ChEMBL document CHEMBL1126040 (J Med Chem, 1992).

The target of assay [1] is Sodium-dependent dopamine transporter (Rattus norvegicus, UniProt P23977). Kind of assay: Inhibition of […] binding to the dopamine transporter in rat striatal membranes. It counts as cell membranes, Membrane.
The target of assay [2] is Sodium-dependent dopamine transporter (Rattus norvegicus) (UniProt P23977). The assay can be described thus: In vitro ability to inhibit the [3H]WIN-35428 binding to cocaine binding site on dopamine transporter in rat striatal membranes irreversibly after one wash. It counts as cell membranes. The arrangement: concentration or dose not given beside the values. As to conditions: Striatum; Membrane.
Sodium-dependent dopamine transporter (Rattus norvegicus), sequence (P23977 whole entry): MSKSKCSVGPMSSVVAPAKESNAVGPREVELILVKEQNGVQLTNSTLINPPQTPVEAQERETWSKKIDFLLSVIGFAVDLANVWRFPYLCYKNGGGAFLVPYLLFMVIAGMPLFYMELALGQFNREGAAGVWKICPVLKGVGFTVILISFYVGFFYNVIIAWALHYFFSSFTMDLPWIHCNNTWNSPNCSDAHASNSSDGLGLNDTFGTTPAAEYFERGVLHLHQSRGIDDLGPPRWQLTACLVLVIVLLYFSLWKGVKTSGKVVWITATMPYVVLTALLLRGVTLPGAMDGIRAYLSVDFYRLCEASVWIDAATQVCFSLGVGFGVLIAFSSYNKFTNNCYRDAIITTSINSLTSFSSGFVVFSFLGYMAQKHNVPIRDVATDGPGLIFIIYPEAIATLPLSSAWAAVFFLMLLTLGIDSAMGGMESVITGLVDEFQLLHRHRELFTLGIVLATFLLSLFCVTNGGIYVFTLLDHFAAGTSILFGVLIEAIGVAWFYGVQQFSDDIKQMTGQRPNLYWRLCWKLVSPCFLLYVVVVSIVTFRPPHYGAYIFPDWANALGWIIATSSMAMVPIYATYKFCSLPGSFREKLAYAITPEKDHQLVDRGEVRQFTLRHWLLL

Assay [3] has the same target. Kind of assay: In vitro ability to inhibit the [3H]WIN-35428 binding to cocaine binding site on dopamine transporter in rat striatal membranes irreversibly after three washes. The format is cell membranes. The arrangement: concentration or dose not given beside the values. As to conditions: Striatum; Membrane.
For assay [4] the target is unchanged. The assay can be described thus: In vitro ability to inhibit the [3H]WIN-35428 binding to cocaine binding site on dopamine transporter in rat striatal membranes irreversibly after no wash. It counts as cell membranes. The arrangement: concentration or dose not given beside the values. As to conditions: Striatum; Membrane.
The target is the same in assay [5]. Kind of assay: In vitro ability to inhibit the [3H]WIN-35428 binding to cocaine binding site on dopamine transporter in rat striatal membranes irreversibly after two washes. The arrangement: concentration or dose not given beside the values. As to conditions: Striatum; Membrane. The format is cell membranes.

Sodium-dependent dopamine transporter, sequence (P23977 whole entry): as above

Usually IC50 stands for the concentration needed to halve the response being measured. In assay [1], `CN1C2CC[C@@H]1C[C@H](c1ccc(Cl)cc1)[C@@H]2C(=O)OCCc1ccc(N)cc1` gave an IC50 of 2.16 nM.

The compound `CN1C2CC[C@@H]1C[C@H](OC(=O)c1ccccc1)[C@@H]2C(=O)OCCc1ccc(N)cc1` yielded an IC50 in assay [1] of 72 nM.

On to `CN1C2CC[C@@H]1C[C@H](OC(=O)c1ccccc1)[C@@H]2C(=O)OCCc1ccc(N=C=S)cc1`, for which, in assay [1], the IC50 came to 196 nM.

In assay [1], `CN1C2CC[C@@H]1C[C@H](c1ccc(Cl)cc1)[C@@H]2C(=O)OCCc1ccc([N+](=O)[O-])cc1` showed an IC50 of 2.71 nM.

`CN1C2CC[C@@H]1C[C@H](c1ccc(Cl)cc1)[C@@H]2C(=O)OCCc1ccc(N=[N+]=[N-])cc1` showed an IC50 in assay [1] of 6.17 nM. The Control in assay [2] turned out to be 19%; in assay [3], 26%; in assay [4], 21%; in assay [5] it was 24%.

Regarding `COC(=O)[C@@H]1C2CC[C@H](C[C@@H]1c1ccc(N=[N+]=[N-])c(I)c1)N2C`, the IC50 in assay [1] came to 4.93 nM. For the same compound, the Control in assay [2] came to 2%; in assay [3], 5%; in assay [4], 0%; in assay [5], 5%.

Take `CN1C2CC[C@@H]1C[C@H](c1ccc(Cl)cc1)[C@@H]2C(=O)OCCc1ccc(NC(=O)CBr)cc1`: the IC50 in assay [1] is 1.73 nM. Besides, the Control in assay [2] stood at 23%; in assay [3] it was 34%; in assay [4], 14%; in assay [5], 26%.

As to `CN1C2CC[C@@H]1C[C@H](OC(=O)c1ccccc1)[C@@H]2C(=O)OCCc1ccccc1`, the IC50 in assay [1] amounted to 248 nM.

`CN1C2CC[C@@H]1C[C@H](c1ccc(Cl)cc1)[C@@H]2C(=O)OCCc1ccc(N=C=S)cc1` had an IC50 in assay [1] of 5.3 nM. Further, the Control was 29% in assay [2], 30% in assay [3], 24% in assay [4] and 26% in assay [5].

As to `CN1C2CC[C@@H]1C[C@H](OC(=O)c1ccccc1)[C@@H]2C(=O)OCCc1ccc(NC(=O)CBr)cc1`, the IC50 in assay [1] is 61 nM. The Control was found to be 34% in assay [2], 38% in assay [3], 22% in assay [4] and 33% in assay [5].

The compound `CN1C2CC[C@@H]1C[C@H](OC(=O)c1ccccc1)[C@@H]2C(=O)OCCc1ccc(N=[N+]=[N-])cc1` had an IC50 in assay [1] of 227 nM. Also, the Control in assay [2] was determined as 30%; in assay [3], 49%; in assay [4], 23%; in assay [5], 45%.

In assay [1], `CN1C2CC[C@@H]1C[C@H](OC(=O)c1ccccc1)[C@@H]2C(=O)OCCCc1ccccc1` returned an IC50 of 139 nM.

For `CN1C2CC[C@@H]1C[C@H](c1ccc(Cl)cc1)[C@@H]2C(=O)OCCc1ccc(N=[N+]=[N-])c(I)c1`, in assay [1], the IC50 amounted to 14.5 nM. The Control in assay [2] stood at 14%; in assay [3] it was 16%; in assay [4], 14%; in assay [5] it was 22%.

In turn, `CN1C2CC[C@@H]1C[C@H](c1ccc(Cl)cc1)[C@@H]2C(=O)OCCc1ccc(N)c(I)c1` returned an IC50 in assay [1] of 2.51 nM.

`CN1C2CC[C@@H]1C[C@H](OC(=O)c1ccccc1)[C@@H]2C(=O)OCCc1ccc([N+](=O)[O-])cc1`: the IC50 in assay [1] stood at 601 nM.

The compound `COC(=O)[C@@H]1C2CC[C@H](C[C@@H]1c1ccc(N)c(I)c1)N2C` yielded an IC50 in assay [1] of 1.35 nM.

For the compound `COC(=O)[C@H]1[C@@H](OC(=O)c2ccccc2)C[C@@H]2CC[C@H]1N2C`, the Control in assay [2] came out at 85%; in assay [4], 43%; in assay [5], 79%.
